According to patent publication US6492330B1, “Antiangiogenic drugs” (National Institute of Immunology, priority 1996, dated 2002):
Non-standard residues stand in square brackets, D forms with d. No end group written: not given here. Aib = CC(C)(N)C(=O)O

Legend:
Assay type in all cases: cell-based
[1] = test system: endothelial cells ECV.304; test: Migration assay across 8 μm polycarbonate filter transwell inserts; conditions: for Percent inhibition in migration: N = 10^−8 M for VIP2, BOM1, SP1, VIP3, SOM2, 10^−7M for VIP1, 10^−9M for SOM1, 24 hours; for PERCENT INHIBITION MIGRATION: 24 hours (Table 4)
Experimental: Polycarbonate filter transwell inserts (24 well size) with 8 μm pores (Nunc, Denmark) were used for the migration assay. ECV304 (10^4 cells/200 ul DMEM containing 0.1% BSA) was added to the upper chamber. The lower chamber contained 600 ul of DMEM with 0.1% BSA. Individual peptides of the composition MuJ-7 at six different concentrations each of N/100, N/10, N, 10N, 100N and 1000N were added directly to the upper well and the plate incubated at 37° C. for 24 hours. The cells migrated to the lower chamber were viewed randomly at five different phase-contrast microscopic fields and the total number of cells counted using Video Pro 32 Image Analysis system. Percent inhibition in migration was determined with reference to the Control. Similarly, […] different concentrations of N/100, N/10, N, 10N, 100N and 1000N of MuJ-7 were added directly to the upper well and the plate incubated at 37° C. for 24 hours. The cells migrated to the lower chamber were counted as described above.
Polycarbonate filter trasnwell inserts (24 well size) with 8 μm pores (Nuno, Denmark) were used for the migration assay. ECV304 (10^4 cells/200 ul DMEM containing 0.1% BSA) was added to the upper chamber. The lower chamber contained 600 ul of DMEM with 0.1% BSA. […] The sequence of each of the peptides added are described above. The cells migrated to the lower chamber were viewed randomly at five different phase-contrast microscopic fields and the total number of cells counted using Video Pro 32 Image Analysis system. Percent inhibition in migration was determined with reference to Control. […]

[2] = test system: EaHy.926; test: MTT assay, inhibition of proliferation of endothelial cells EaHy.926; conditions: 72 hours
Experimental: (§1) 150 μl of medium was added to the wells of a 96-well tissue culture plate (Nunc, Denmark) followed by 30 μl of cell suspension. The plate was left in incubator (37° C., 5% CO2) overnight. Each of the seven peptides of the combination MuJ-7 were added at three molar concentrations of 10^−7M, 10^−8M and 10^−9M. 20 μl of MuJ-7 at three concentrations of N/10, N and 10N was added to marked wells of the 96-well plate. The value of N for each of the individual peptides was 10^−8M for VIP2, BOM1, SP1, VIP3, and SOM2 and 10^−7M for VIP1, and 10^−9M for SOM1. Each concentration was plated in triplicate. 20 μl of medium alone was added to control wells while wells without cells served as blanks. A total volume of 200 μl was ensured in each well and the plate was left in an incubator (37° C., 5% CO2). After 72 hours of incubation an MTT assay was performed and percentage inhibition in proliferation of treated cells was calculated with respect to control cells.

[3] = test system: ECV.304 cells; test: MTT assay, inhibition of proliferation of endothelial cells ECV.304; conditions: for Percent Inhibition Proliferation: 72 hours (Table 1); for PERCENT INHIBITION OF PROLIFERATION: 72 hours (Table 2)
Experimental: as §1
150 μl of medium was added to the wells of a 96-well tissue culture plate (Nunc, Denmark) followed by 30 μl of cell suspension. The plate was left in incubator (37° C., 5% CO2) overnight. Novel peptides shown below were incubated with cells at concentration range of 10^−7 to 10^−9 M (except DT71 at concentration range 10^−8 to 10^−10 M). Each concentration was plated in triplicates. 20 μl of medium alone was added to control wells while wells without cells served as blanks. A total volume of 200 μl was ensured in each well and plate was left in incubator (37° C., 5% CO2). After 72 hours of incubation an MTT assay was performed and percentage inhibition in proliferation of treated cells was calculated with respect to control cells.

[4] = test system: ECV304; test: Tube-like-structure (TLS) formation on Matrigel; conditions: 24 hours
Experimental: Matrigel (350 ul) was placed into each well of a 24-well culture plate at 4° C. and was allowed to polymerize by incubation at 37° C. for 30 min. ECV304 (1.5×10^4) were seeded on the Matrigel in 500 ul DMEM supplemented with 10% FBS. MuJ-7 at four different concentrations of 0.25×, 0.5×, ×, & 5.0× were added and. the plate incubated at 37° C. for 24 hour. “×” denotes normal concentration of MuJ-7 where molar concentration of individual peptides was 10^−8 M for VIP2, BOM1, SP1, VIP3 and SOM2 and 10^−7 M for VIP1 and 10^−9 M for SOM1. […] Percent inhibition in tube area was determined with reference to untreated cells.
Matrigel (350 ul) was placed into each well of a 24-well culture plate at 4° C. and was allowed to polymerize by incubation at 37° C. for 30 min. ECV304 (1.5×10^4) were seeded on the Matrigel in 500 ul DMEM supplemented with 10% FBS. […] Percent inhibition in tube length was determined with reference to untreated cells.
Matrigel (350 ul) was placed into each well of a 24-well culture plate at 4° C. and was allowed to polymerize by incubation at 37° C. for 30 min. ECV304 (1.5×10^4) were seeded on the Matrigel in 500 ul DMEM supplemented with 10% FBS. Individual peptides of the composition MuJ-7 at three different concentrations each of N/10, N, and 10N were added and the plate incubated at 37° C. for 24 hours. […] Percent inhibition in tube length was determined with reference to Control. Similarly, three different concentrations of N/10, N, and 10N of MuJ-7 were added to the well and the plate incubated at 37° C. for 24 hours. Percent inhibition in tube length was determined with reference to Control as described previously (Table 10).

[5] = analog at optimum concentration −8M

| Substance | PERCENT INHIBITION MIGRATION [1, 5] | INHIBITION OF TUBE LENGTH ([4]; peptide −8M) | PERCENT INHIBITION OF PROLIFERATION ([3]; ECV304, 10^−7M) | PERCENT INHIBITION OF PROLIFERATION ([3]; ECV304, 10^−8M) | PERCENT INHIBITION OF PROLIFERATION ([3]; ECV304, 10^−9M) | further results |
| --- | --- | --- | --- | --- | --- | --- |
| KPRRPYTDNYTRLRKQMAVKKYLNSILN-NH2 [VIP1] | – | – | – | – | – | Percent inhibition in migration ([1]; 10N): 62.60%; Percent inhibition in migration ([1]; 100N): 66.52%; Percent inhibition in migration ([1]; 1000N): 0.00%; Percent inhibition in migration ([1]; N/10): 52.60%; Percent inhibition in migration ([1]; N/100): 37.53%; Percent inhibition in migration ([1]; N): 69.40%; Percent Inhibition Proliferation ([2]; EaHy.926, peptide 10^−7M): 25%; Percent Inhibition Proliferation ([2]; EaHy.926, peptide 10^−8M): 24%; Percent Inhibition Proliferation ([2]; EaHy.926, peptide 10^−9M): 23%; Percent Inhibition Proliferation ([3]; ECV.304, peptide 10^−7M): 15%; Percent Inhibition Proliferation ([3]; ECV.304, peptide 10^−8M): 17%; Percent Inhibition Proliferation ([3]; ECV.304, peptide 10^−9M): 16% |
| D-Phe-Cys-Tyr-D-Trp-Om-Thr-Pen-Thr-NH2 [SOM1] | – | – | – | – | – | Percent inhibition in migration ([1]; 10N): 88.75%; Percent inhibition in migration ([1]; 100N): 73.73%; Percent inhibition in migration ([1]; 1000N): 25.00%; Percent inhibition in migration ([1]; N/10): 78.50%; Percent inhibition in migration ([1]; N/100): 84.27%; Percent inhibition in migration ([1]; N): 88.11%; Percent Inhibition Proliferation ([2]; EaHy.926, peptide 10^−7M): 36%; Percent Inhibition Proliferation ([2]; EaHy.926, peptide 10^−8M): 36%; Percent Inhibition Proliferation ([2]; EaHy.926, peptide 10^−9M): 22%; Percent Inhibition Proliferation ([3]; ECV.304, peptide 10^−7M): 20%; Percent Inhibition Proliferation ([3]; ECV.304, peptide 10^−8M): 20%; Percent Inhibition Proliferation ([3]; ECV.304, peptide 10^−9M): 19% |
| Aib-Met-Tyr-Pro-Thr-Tyr-Aib-Lys-OH ([Aib]MYPTY[Aib]K-OH; N-terminus assumed; SMILES CSCC[C@H](NC(=O)C(C)(C)N)C(=O)N[C@@H](Cc1ccc(O)cc1)C(=O)N1CCC[C@H]1C(=O)N[C@H](C(=O)N[C@@H](Cc1ccc(O)cc1)C(=O)NC(C)(C)C(=O)N[C@@H](CCCCN)C(=O)O)[C@@H](C)O) [DT-11] | 82.5% | 3.6% | 16.7% | 18.7% | 19.9% | – |
| LM[dY]PTY[dL]K-OH [DT-15] | 73.2% | 0% | 20.4% | 13.2% | 20.0% | – |
| D-Phe-Cys-Tyr-D-Trp-Lys-Thr-Aib-Thr-NH2 (XCYXKTXT; D-amino acids, Aib, C-terminal amide) [DT-71] | – | – | – | 14.6% | 12.1% | PERCENT INHIBITION MIGRATION ([1]; analog at optimum concentration −9M): 68.2%; INHIBITION OF TUBE LENGTH ([4]; peptide −9M): 9.9%; PERCENT INHIBITION OF PROLIFERATION ([3]; ECV304, 10^−10M): 9.4% |
| [dL]MQWF[Aib]-NH2 [DT-33] | 41.4% | 13.5% | 8.7% | 15.8% | 13.9% | – |
| D-Leu-Met-Tyr-Pro-Thr-Tyr-Aib-Lys-OH ([dL]MYPTY[Aib]K-OH; N-terminus assumed; SMILES CSCC[C@H](NC(=O)[C@H](N)CC(C)C)C(=O)N[C@@H](Cc1ccc(O)cc1)C(=O)N1CCC[C@H]1C(=O)N[C@H](C(=O)N[C@@H](Cc1ccc(O)cc1)C(=O)NC(C)(C)C(=O)N[C@@H](CCCCN)C(=O)O)[C@@H](C)O) [DT-12] | 58.7% | 17.1% | 20.3% | 16.1% | 15.5% | – |
| [dR]PKP[Aib]Q[dW]F[dW][Aib]L-NH2 [DT-34] | 53.6% | 0% | 12.1% | 15.6% | 14.3% | – |
